Earlier results on 1 compound are cited in paper PMC9835671 (The Pediatric Infectious Disease Journal, 2022).

≈ marks a conversion by molar mass, not a printed value. Read-outs that look alike come from different tables or passages of the source.

The term MIC90 denotes the lowest concentration that inhibits either 90% of growth or 90% of the strains tested, depending on the study.

Data set [1] concerns S aureus. As to conditions: neutropenic murine thigh infection model.
The subject of data set [2] is S aureus.
Another data set deals with serum albumin. As to conditions: intravenously administered.
Data set [3] deals with S aureus. As to conditions: adult popPK model; 1000-mg (double-dose) and 1500-mg (single-dose) doses; MIC ≤2 mg/L.
The next data set deals with ABSSSI. As to conditions: for Clinical response: microbiological ITT population.
The conditions of data set [4]: adults.

`CN[C@H]1C(=O)N[C@@H]2Cc3ccc(cc3)Oc3cc4cc(c3O[C@@H]3O[C@H](C(=O)O)[C@@H](O)[C@H](O)[C@H]3NC(=O)CCCCCCCCC(C)C)Oc3ccc(cc3Cl)[C@@H](O)[C@@H]3NC(=O)[C@H](NC(=O)[C@@H]4NC(=O)[C@@H](NC2=O)c2cc(cc(O)c2Cl)Oc2cc1ccc2O)c1ccc(O)c(c1)-c1c(O[C@H]2O[C@H](CO)[C@@H](O)[C@H](O)[C@@H]2O)cc(O)cc1[C@@H](C(=O)NCCCN(C)C)NC3=O` [dalbavancin]: in the data set with S aureus [1], the “24-hour fAUC/MIC target for bacterial stasis” value was 27.1 h. Also, the CLSI susceptibility breakpoint in the data set with S aureus [2] (Clinical and Laboratory Standards Institute) was 0.25 µg/mL. Further, the MIC90 in the data set with S aureus [2] (against S aureus) was 0.03 µg/mL (≈ 0.0165 µM). For the same compound, in the data set on serum albumin, the “bound to serum albumin” value is reported as ~ 93%. In addition, the unbound form in the data set with serum albumin was 7%. Also, the “simulated patients predicted to achieve the stasis target” value in the data set with S aureus [3] is given as greater than 99%. Moreover, the Clinical response with ABSSSI (double-dose regimen, end-of-treatment) is 97.3%; with ABSSSI (double-dose regimen, follow-up) it was 97.3%; with ABSSSI (single-dose regimen, end-of-treatment), 94.8%; in the data set with ABSSSI (single-dose regimen, follow-up), 97.4%. For the same compound, the “patients who achieved a clinical cure” value in the data set on ABSSSI (test-of-cure) is reported as greater than 96%. In addition, the “terminal elimination half-life (t1/2)” value in data set [4] is greater than 14 days.
